# Measurements taken from US20090176857A1, “Use of Organic Compounds” (priority 2005, published 2009).
# Legend:
# [1] = system: patients with constipation predominant and alternating forms of IBS; conditions: literature abstract; cited from earlier work
# [2] = system: women with IBS-C (Rome II criteria) and IBS-M (modification of Rome II); experiment: Randomized, double-blind, placebo-controlled, multicenter study, 4 weeks treatment, in patients with IBS-C and IBS-M; assay type: in vivo; conditions: for days/week with no BMs (mean) / stool consistency score using a 7-patient scale (mean) / days/wk with straining (mean) / weekly BM frequency (mean): p<0.05
# Procedure: Evaluation of the effect of tegaserod (T) on multiple symptoms in women with mixed/alternating bowel habits.
# METHODS: A randomized, double-blind, placebo-controlled, multicenter study was performed in patients with IBS-C (based on Rome II criteria) and IBS-M (modification of Rome II). The primary efficacy variable was the patients' assessment of satisfactory relief over 4 weeks treatment with T 6 mg bid or Placebo (P). The proportion of patients reporting satisfactory relief of 4 weeks (75% rule) and improvement during each of the 4 weeks in individual IBS symptoms were also assessed. Treatments were compared using a generalized linear model with logit link.
# RESULTS: 661 women were randomized (IBS-C 337; IBS-M 324). Baseline symptom assessment clearly distinguished between the IBS-C and the IBS-M cohorts. Statistically significant differences were found between the two cohorts in bowel movement (BM) frequency, stool consistency and straining. T provided statistically significant improvement in satisfactory relief of IBS symptoms over a 4-week treatment (odds ratio 1.75; 95% CI: 1.35, 2.25; p-value<0.001) for the IBS-C and IBS-M cohorts. […] Adverse event discontinuations were low (IBS-C: T 1.2% v P 2.4% and IBS-M: T 2.5% v P 3.6%). Most frequent AEs (with discontinuations) were diarrhea (1.1%), headache (0.6%) and nausea (0.3%). No clinically significant diarrhea or colitis of any type was reported.
smiles,measurement,setting,value
"[H]/N=C(/NCCCCC)N/N=C/c1c[nH]c2ccc(OC)cc12 [T, tegaserod]",safety and tolerability profile,[1],favourable safety and tolerability profile
same,"satisfactory relief of IBS symptoms over a 4-week treatment, odds ratio","[2]; IBS-C and IBS-M cohorts, T 6 mg bid vs placebo, 95% CI: 1.35, 2.25, p<0.001",1.75
same,percentage of patients experiencing satisfactory relief of IBS symptoms (75% rule),"[2]; IBS-C cohort, T 6 mg bid, 4 weeks, placebo 28.9%, p=0.008",43.3%
same,days/week with no BMs (mean),"[2]; IBS-C cohort, T 6 mg bid, placebo 2.18",2.31 days/week
same,Adverse event discontinuations,"[2]; IBS-C cohort, T 6 mg bid, placebo 2.4%",1.2%
same,stool consistency score using a 7-patient scale (mean),"[2]; IBS-C cohort, T 6 mg bid, placebo 2.89",3.53
same,days/wk with straining (mean),"[2]; IBS-C cohort, T 6 mg bid, placebo 3.55",3.08 days/wk
same,weekly BM frequency (mean),"[2]; IBS-C cohort, T 6 mg bid, placebo 6.06",6.88
same,percentage of patients experiencing satisfactory relief of IBS symptoms (75% rule),"[2]; IBS-M cohort, T 6 mg bid, 4 weeks, placebo 36.3%, p=0.010",52.3%
same,days/week with no BMs (mean),"[2]; IBS-M cohort, T 6 mg bid, placebo 1.68",1.39 days/week
same,days/wk with straining (mean),"[2]; IBS-M cohort, T 6 mg bid, placebo 2.87",2.42 days/wk
same,stool consistency score using a 7-patient scale (mean),"[2]; IBS-M cohort, T 6 mg bid, placebo 3.49",3.95
same,Adverse event discontinuations,"[2]; IBS-M cohort, T 6 mg bid, placebo 3.6%",2.5%
same,weekly BM frequency (mean),"[2]; IBS-M cohort, T 6 mg bid, placebo 8.34",9.78
same,treating the overall symptoms of IBS in patients with a mixed or alternating bowel habit (conclusion),"[2]; IBS-M, T 6 mg bid, 4 weeks",effective and safe
same,Most frequent AEs (with discontinuations): diarrhea,[2]; treatment group not stated,1.1%
same,Most frequent AEs (with discontinuations): headache,[2]; treatment group not stated,0.6%
same,Most frequent AEs (with discontinuations): nausea,[2]; treatment group not stated,0.3%
